Assay results from the supplement of paper PMC8671470.

Tests used:
Conditions in all cases: 72 h
[1] = tested on: myeloid leukemia patient primary cells Pat.7; test: area under dose-response curve (viability, 1 nM-10 uM) (fraction (0-1)); higher = more sensitive
Experimental: (§1)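 AUC (0–1, higher = more sensitive) of the 5-point dose–response (1 nM–10 µM, 72 h, CellTiter-Glo) in primary AML/CML patient mononuclear cells. 0.030103 is the floor for inactive compounds.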

[2] = tested on: myeloid leukemia patient primary cells Pat.9; test: as above
Experimental: as §1

[3] = tested on: myeloid leukemia patient primary cells Pat.4; test: as above
Experimental: as §1

[4] = tested on: myeloid leukemia patient primary cells Pat.3; test: as above
Experimental: as §1

[5] = tested on: myeloid leukemia patient primary cells Pat.11; test: as above
Experimental: as §1

[6] = tested on: myeloid leukemia patient primary cells Pat.8; test: as above
Experimental: as §1

[7] = tested on: myeloid leukemia patient primary cells Pat.1; test: as above
Experimental: as §1

[8] = tested on: myeloid leukemia patient primary cells Pat.2; test: as above
Experimental: as §1

[9] = tested on: myeloid leukemia patient primary cells Pat.10; test: as above
Experimental: as §1

[10] = tested on: myeloid leukemia patient primary cells Pat.6; test: as above
Experimental: as §1

[11] = tested on: myeloid leukemia patient primary cells Pat.14; test: as above
Experimental: as §1

[12] = tested on: myeloid leukemia patient primary cells Pat.12; test: as above
Experimental: as §1

[13] = tested on: myeloid leukemia patient primary cells Pat.5; test: as above
Experimental: as §1

[14] = tested on: myeloid leukemia patient primary cells Pat.13; test: as above
Experimental: as §1

[15] = tested on: myeloid leukemia patient primary cells Pat.15; test: cell viability (% survival relative to DMSO control); higher = less cytotoxic
Procedure, shortened: (§2)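 Thawed, Ficoll-purified mononuclear cells from AML or CML patients in RPMI 1640 with 10% FBS were seeded at 10,000 cells/well on 384-well plates pre-printed with 70 compounds at five tenfold concentrations, 1–10,000 nM, in duplicate, for 72 h. Viability was read by CellTiter-Glo and normalised to DMSO and 10 μM proteasome-inhibitor wells. Where given, area under the curve came from four-parameter log-logistic fits (drc, PharmacoGx R packages).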

[16] = tested on: myeloid leukemia patient primary cells Pat.7; test: as above
Procedure, shortened: as §2

[17] = tested on: myeloid leukemia patient primary cells Pat.11; test: as above
Procedure, shortened: as §2

[18] = tested on: myeloid leukemia patient primary cells Pat.2; test: as above
Procedure, shortened: as §2

[19] = tested on: myeloid leukemia patient primary cells Pat.10; test: as above
Procedure, shortened: as §2

[20] = tested on: myeloid leukemia patient primary cells Pat.6; test: as above
Procedure, shortened: as §2

HL-60 [21] = test: cell viability (% survival relative to DMSO control); higher = less cytotoxic
Procedure, shortened: (§3)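 HL-60 cells in RPMI 1640 with 10% FBS were rescreened against the full library on 384-well plates at five tenfold concentrations, 1–10,000 nM, in duplicate. Each screen was run with DMSO or 100 nM of one of three metabolic inhibitors, for 72 h at 37 °C, 5% CO2. Viability was read by CellTiter-Glo and normalised to DMSO and 10 μM proteasome-inhibitor wells. Where given, area under the curve came from four-parameter log-logistic fits (drc, PharmacoGx).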

HL-60 [22] = test: area under dose-response curve (viability, 1 nM-10 uM) (fraction (0-1)); higher = more sensitive
Procedure, shortened: as §3

[23] = tested on: myeloid leukemia patient primary cells Pat.15; test: area under dose-response curve (viability, 1 nM-10 uM) (fraction (0-1)); higher = more sensitive
Experimental: as §1

CN(CCOc1ccc(Cc2sc(O)nc2O)cc1)c1ccccn1 [Rosiglitazone]
Conditions | area under dose-response curve
[1] | < 0.0301
[2] | 0.139
[3] | < 0.0301
[4] | 0.0764
[5] | < 0.0301
[6] | < 0.0301
[7] | < 0.0301
[8] | < 0.0301
[9] | 0.0632
[10] | < 0.0301
[11] | < 0.0301
[12] | < 0.0301
[13] | 0.0995
[14] | < 0.0301

Conditions | area under dose-response curve, co-treatment: AZD3965 100 nM | area under dose-response curve, co-treatment: DMSO vehicle | area under dose-response curve, co-treatment: GSK2194069 100 nM | area under dose-response curve, co-treatment: pictilisib 100 nM | cell viability, 1 nM [%] | cell viability, 10 nM [%] | cell viability, 100 nM [%] | cell viability, 1000 nM [%] | cell viability, 10000 nM [%]
HL-60 [22] | < 0.0301 | < 0.0301 | < 0.0301 | < 0.0301 | – | – | – | – | –
[15] | – | – | – | – | 93.1 | 95 | 91.5 | 77.7 | 70
[16] | – | – | – | – | 62.7 | 60 | > 100 | 88.5 | 66
[17] | – | – | – | – | 98.6 | 92.1 | 95.7 | 97.2 | 88.1
[18] | – | – | – | – | 87.1 | 78.9 | 97.8 | 98.3 | 83.4
[19] | – | – | – | – | 73.8 | 40 | 87.7 | 67.1 | 49.2
[20] | – | – | – | – | 89.5 | 85.4 | 96.7 | 99 | 77.9

cell viability [%], HL-60 [21]
Conditions | 0.001 µM | 0.01 µM | 0.1 µM | 1 µM | 10 µM
co-treatment: AZD3965 100 nM | 104.4 | 105 | 100 | 105 | 102
co-treatment: DMSO vehicle | 102.4 | 102 | 102 | 102.5 | 99.9
co-treatment: GSK2194069 100 nM | 97.7 | 105 | 98.5 | 105 | 92.5
co-treatment: pictilisib 100 nM | 98.9 | 102 | 96.3 | 98.3 | 89.5

O=C1C(SCCO)=C(SCCO)C(=O)c2ccccc21
Conditions | area under dose-response curve
[1] | 0.45
[2] | 0.455
[3] | 0.354
[4] | 0.33
[5] | 0.355
[6] | 0.174
[7] | 0.378
[8] | 0.234
[10] | 0.187
[11] | 0.421
[12] | 0.385
[13] | 0.455
[14] | 0.147
[23] | 0.444

Conditions | area under dose-response curve, co-treatment: AZD3965 100 nM | area under dose-response curve, co-treatment: DMSO vehicle | area under dose-response curve, co-treatment: GSK2194069 100 nM | area under dose-response curve, co-treatment: pictilisib 100 nM | cell viability, 1 nM [%] | cell viability, 10 nM [%] | cell viability, 100 nM [%] | cell viability, 1000 nM [%] | cell viability, 10000 nM [%]
HL-60 [22] | 0.139 | 0.114 | 0.125 | 0.192 | – | – | – | – | –
[15] | – | – | – | – | 82.6 | 89.3 | 63.2 | 2.59 | 0.4
[16] | – | – | – | – | 37.3 | 96.4 | 57.1 | < 0 | < 0
[17] | – | – | – | – | 96.1 | 91.4 | 99.8 | 7.63 | 0.114
[18] | – | – | – | – | 93.1 | > 100 | 97.1 | 55.8 | 0.14
[19] | – | – | – | – | 29.3 | > 100 | 60.9 | 35 | > 100
[20] | – | – | – | – | 77.1 | > 100 | 99.3 | 71.1 | < 0

cell viability [%], HL-60 [21]
Conditions | 0.001 µM | 0.01 µM | 0.1 µM | 1 µM | 10 µM
co-treatment: AZD3965 100 nM | 102 | 105 | 104 | 95.3 | -0.491
co-treatment: DMSO vehicle | 101 | 104.7 | 99.1 | 102 | 7.09
co-treatment: GSK2194069 100 nM | 99.5 | 98.79 | 97.3 | 102 | 1.87
co-treatment: pictilisib 100 nM | 107.4 | 104 | 95.6 | 75.46 | -0.39

O=C(O)CC[N+](=O)[O-] [3-nitropropionic acid]
Conditions | area under dose-response curve
[1] | 0.058
[2] | 0.148
[3] | 0.113
[4] | 0.133
[5] | < 0.0301
[6] | < 0.0301
[7] | 0.0529
[9] | 0.0892
[10] | 0.0437
[11] | 0.112
[12] | 0.0457
[13] | 0.168
[14] | 0.0548
[23] | 0.123

Conditions | area under dose-response curve, co-treatment: AZD3965 100 nM | area under dose-response curve, co-treatment: DMSO vehicle | area under dose-response curve, co-treatment: GSK2194069 100 nM | area under dose-response curve, co-treatment: pictilisib 100 nM | cell viability, 1 nM [%] | cell viability, 10 nM [%] | cell viability, 100 nM [%] | cell viability, 1000 nM [%] | cell viability, 10000 nM [%]
HL-60 [22] | < 0.0301 | < 0.0301 | < 0.0301 | < 0.0301 | – | – | – | – | –
[15] | – | – | – | – | 92.7 | 79.1 | 98.7 | 94.9 | 2.04
[16] | – | – | – | – | 98.1 | 99.9 | 82.6 | 90.8 | 44.9
[17] | – | – | – | – | 97.4 | 90.2 | 97.5 | 99.5 | 97.4
[18] | – | – | – | – | 91.3 | 98.1 | > 100 | 92.7 | 83.7
[19] | – | – | – | – | 90.9 | 83.7 | 74.7 | 76.2 | 36.6
[20] | – | – | – | – | > 100 | 93 | > 100 | 96.8 | 90

cell viability [%], HL-60 [21]
Conditions | 0.001 µM | 0.01 µM | 0.1 µM | 1 µM | 10 µM
co-treatment: AZD3965 100 nM | 102 | 95.1 | 101 | 101.5 | 97.6
co-treatment: DMSO vehicle | 99.6 | 98.8 | 107 | 111 | 101
co-treatment: GSK2194069 100 nM | 98.1 | 76.9 | 116 | 115 | 96.7
co-treatment: pictilisib 100 nM | 84.3 | 82.1 | 103 | 128 | 106
